Values belong to the sequence of their own block, whether it stands above or below them.
Molecular target: T1, MyD88^TIR (Homo sapiens, UniProt Q99836)
T1 construct: MyD88 (residues 148–296); 6xHis; made in house; host or cells: E. coli BL21 (DE3)
Assay: T‐Surf phage library (P8 and P3) selection against MyD88^TIR, four rounds, NGS read counts
Type: binding
Settings: for P8_MyD88 Rank (after) / P8_MyD88 Rank (before): P8 library; for P3_MyD88 Rank (after) / P3_MyD88 Rank (before): P3 library; for Population: 4th round of selection against MyD88 TIR, share of NGS reads
Outline: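 Read counts come from NGS of phage pools after the fourth selection round, barcoded by 20-cycle PCR and filtered for quality ≥30. Each round: phage incubated 1 h at RT on immobilised TIR protein (5 µg mL^−1, BSA-blocked), washed, HCl-eluted and amplified in E. coli TG1.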

[1] = selection against MyD88, rank by count after grouping
[2] = selection against MyD88, rank by count before grouping
[3] = P8_MyD88: rank by NGS read count after grouping
[4] = P8_MyD88: rank by NGS read count before grouping
[5] = selection against MyD88, rank after grouping
[6] = selection against MyD88, rank before grouping
[7] = 4R selection against MyD88, rank after grouping
[8] = 4R selection against MyD88, rank before grouping
[9] = P8_MyD88: rank by count after grouping
[10] = P8_MyD88: rank by count before grouping
[11] = P3_MyD88: rank by count after grouping
[12] = P3_MyD88: rank by count before grouping
[13] = P3_MyD88 pool: P3 T-Surf phage library
[14] = selection against MyD88 TIR, rank by count after grouping
[15] = selection against MyD88 TIR, rank by count before grouping

T1 sequence (Q99836 148-296): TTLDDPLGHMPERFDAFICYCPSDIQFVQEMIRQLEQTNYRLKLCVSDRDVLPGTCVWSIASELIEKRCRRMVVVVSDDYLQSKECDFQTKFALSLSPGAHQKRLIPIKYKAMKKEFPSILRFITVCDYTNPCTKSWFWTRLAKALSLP

Sequence: YNLAHYLYVSMRASGI
P8_MyD88 Rank (after) [1]: 715 | P8_MyD88 Rank (before) [2]: 2132

Sequence: IDDDHLTYLVRLLYSLHVTE
Rank (after) [3]: 895 | Rank (before) [4]: 3629

Sequence: LGYHLIVWEYFVGIED
P8_MyD88 Rank (after) [1]: 744 | P8_MyD88 Rank (before) [2]: 3227

Sequence: WALDLEWFYERLFSQM
P8_MyD88 Rank (after) [7]: 587 | P8_MyD88 Rank (before) [8]: 1517

Sequence: LKCGEPYFWSKLRYSI
P3_MyD88 Rank (after) [5]: 578 | P3_MyD88 Rank (before) [6]: 2406

Sequence: LGYHWIVWEYFVGIDD
Rank (after) [9]: 421 | Rank (before) [10]: 3244

Sequence: DPHDLQWLYERLVSLI
Rank (after) [3]: 985 | Rank (before) [4]: 2634

Sequence: WFWDKQKYTLPHRYEP
P3_MyD88 Rank (after) [7]: 583 | P3_MyD88 Rank (before) [8]: 1418

Sequence: LNVEGWRQALEKAGKL
Rank (after) [11]: 131 | Rank (before) [12]: 2401

Sequence: SDVDHLTYLVRVRLCR
P8_MyD88 Rank (after) [1]: 728 | P8_MyD88 Rank (before) [2]: 3748

Sequence: YLLLSVFQTICALRTE
Rank (after) [3]: 963 | Rank (before) [4]: 1999

Sequence: NSFREGLWRLVELSKK
P3_MyD88 Rank (after) [5]: 535 | P3_MyD88 Rank (before) [6]: 3557

Sequence: QDLGWFYERLFSQM
P8_MyD88 Rank (after) [1]: 735 | P8_MyD88 Rank (before) [2]: 3564

Sequence: DPQDHYLLYERLVSLF
Rank (after) [3]: 934 | Rank (before) [4]: 2964

Sequence: IDDDHLTYLVRLLYSLHVT
P8_MyD88 Rank (after) [7]: 669 | P8_MyD88 Rank (before) [8]: 3630

Sequence: WMRALAYIVNIVGESS
P8_MyD88 Rank (after) [14]: 268 | P8_MyD88 Rank (before) [15]: 529

Sequence: WRDALNNISSIFGWVA
P8_MyD88 Rank (after) [1]: 764 | P8_MyD88 Rank (before) [2]: 1648

Sequence: WDFASNMEQFWDRLLYA
P8_MyD88 Rank (after) [1]: 711 | P8_MyD88 Rank (before) [2]: 1610

Sequence: DPHDLEWVYERLVSLF
Rank (after) [3]: 913 | Rank (before) [4]: 2603

Sequence: KMQKWNDALYEAAHLR
P3_MyD88 Rank (after) [7]: 636 | P3_MyD88 Rank (before) [8]: 3714

Sequence: RISAFHQQLLMALKTQ
P3_MyD88 Rank (after) [1]: 706 | P3_MyD88 Rank (before) [2]: 2609

Sequence: KWFWDKLKYALPHRYEP
Rank (after) [11]: 128 | Rank (before) [12]: 790

Sequence: SSFREGLWRLLKLNKK
P3_MyD88 Rank (after) [14]: 266 | P3_MyD88 Rank (before) [15]: 3181

Sequence: KNLSNELVSKNILTFM
P3_MyD88 Rank (after) [14]: 260 | P3_MyD88 Rank (before) [15]: 3787

Sequence: NQWRNALTKVASL
Population [13]: 0.00378%

Sequence: YASNDDNDYYWVTHVRLRHL
Rank (after) [3]: 1023 | Rank (before) [4]: 1909

Sequence: PYLLWVFDDEDGQELF
P8_MyD88 Rank (after) [14]: 199 | P8_MyD88 Rank (before) [15]: 291

Sequence: QYSDTLLEHTANFRM
Rank (after) [11]: 392 | Rank (before) [12]: 2842

Sequence: LVAHEISKKRKIFATS
P3_MyD88 Rank (after) [5]: 511 | P3_MyD88 Rank (before) [6]: 2306

Sequence: LKVESWRQALDELVL
P3_MyD88 Rank (after) [14]: 261 | P3_MyD88 Rank (before) [15]: 1077

Sequence: YLRADEFWTLEKLLTA
P8_MyD88 Rank (after) [7]: 609 | P8_MyD88 Rank (before) [8]: 2071

The remaining lines, values ahead:

Rank (after) [3]: 918 | Rank (before) [4]: 2663
Sequence: DPQGLVWLYERLFSQI

P3_MyD88 Rank (after) [5]: 551 | P3_MyD88 Rank (before) [6]: 2827
Sequence: HSEWACHELYFSHFWP

P3_MyD88 Rank (after) [7]: 626 | P3_MyD88 Rank (before) [8]: 3614
Sequence: KEVEGWRGALTKKASL

P8_MyD88 Rank (after) [1]: 680 | P8_MyD88 Rank (before) [2]: 2615
Sequence: DPLHLDWHYERLVSTD

Rank (after) [9]: 430 | Rank (before) [10]: 897
Sequence: WRTALTKVGNMLGWIS

P3_MyD88 Rank (after) [7]: 640 | P3_MyD88 Rank (before) [8]: 1424
Sequence: WIWEKLKYALPHRYEP

P8_MyD88 Rank (after) [5]: 493 | P8_MyD88 Rank (before) [6]: 2746
Sequence: DPQDLDWFWVRLIEAL

Rank (after) [11]: 474 | Rank (before) [12]: 2698
Sequence: PVAHDLSKKMKIFATI

Population [13]: 0.00437%
Sequence: SSFREDLWRLLELSKK

P3_MyD88 Rank (after) [7]: 594 | P3_MyD88 Rank (before) [8]: 2769
Sequence: HLLREFDKKLITAFQD

P8_MyD88 Rank (after) [7]: 649 | P8_MyD88 Rank (before) [8]: 2649
Sequence: DPQVLEWIYARLFSQM

P8_MyD88 Rank (after) [14]: 277 | P8_MyD88 Rank (before) [15]: 2957
Sequence: DPQDREWFYERLVSLF

Rank (after) [3]: 968 | Rank (before) [4]: 3399
Sequence: RGFHWTEWENFVDIED

Population [13]: 0.00349%
Sequence: SSFRGGLWRLLELSKK

Rank (after) [11]: 105 | Rank (before) [12]: 919
Sequence: GIFREGLWRLLELSKK

P8_MyD88 Rank (after) [14]: 221 | P8_MyD88 Rank (before) [15]: 370
Sequence: TYLWWVEDERGQEYFW

Population (P8_MyD88 pool: P8 T-Surf phage library): 0.00771%
Sequence: YLLLSVFQTIFARRTD

P8_MyD88 Rank (after) [14]: 279 | P8_MyD88 Rank (before) [15]: 2689
Sequence: DPQALDWFYERLVRLF

P3_MyD88 Rank (after) [5]: 559 | P3_MyD88 Rank (before) [6]: 2682
Sequence: RVAHEISTKMKIFATI

— PMC11714206, “Massively Parallel Screening of Toll/Interleukin‐1 Receptor (TIR)‐Derived Peptides Reveals Multiple Toll‐Like Receptors (TLRs)‐Targeting Immunomodulatory Peptides” (Advanced Science, 2024)
